Experimental data as given in patent EP1935986B1, “Luminogenic and fluorogenic compounds and methods to detect molecules or conditions” (priority 2005, dated 2006).

Columns and labels:
[1] = test system: thermostable luciferase (Luc 146-1H2); assay: Thermostable luciferase reaction with luciferin derivatives: light readings; type: biochemical
Description: (§1) This stock was used to produce enzyme stock solution having of 200 µg/ml enzyme solution in 1 mg/ml BSA, 200 mM HEPES buffer, pH 8.0, 20 mM MgCl2.
(§2) Solutions were made using a 1 M DTT solution, pH adjusted to 8.0, a 20 mM Coenzyme A solution in water (both described in examples above), a 100 mM ATP solution and water to create the following solutions: Sol'A, 100 µM ATP; Sol'B, 100 µM ATP, 4 mM Coenzyme A; Sol'n C, 100 µM ATP, 400 mM DTT, and; Sol'n D, 100 µM ATP, 4 mM Coenzyme A and 400 mM DTT.
The following reactions were prepared (Table 47) Table 47
(§3) After assembly, the reactions were initiated by addition of 25 µl of the thermostable luciferase stock solution above and mixing the tube contents. A 50 µl sample was immediately removed and placed in a luminometer tube and the light read and the tube then replaced in a tube rack at room temperature. While the light reading was being taken, a 5 µl sample of the remaining reaction (which was kept at room temperature) was diluted into 495 µl of 50 mM BisTris, pH 6.5, 1 mg/ml BSA, 1 mM EDTA prechilled to 4°C and the tube mixed and placed on ice. The light produced by the samples in the luminometer tubes were re-read at 20, 40, 60, 90 and 120 minutes post enzyme addition. Additional 5 µl samples were taken and diluted as above at 60 and 120 minutes post enzyme addition. Once all these readings and samples were taken, 50 µl of the diluted samples was mixed with 50 µl of Steady Glo in luminometer tubes, the tubes incubated 10 minutes on ice then the light produced was read on a Turner TD 20/20 luminometer.

[2] = test system: thermostable luciferase (Luc 146-1H2); assay: Residual thermostable luciferase activity after reaction with luciferin derivatives (Steady Glo); type: biochemical
Description: as §1, §2, §3

O=C(O)[C@H]1CSC(c2nc3ccc(OCc4ccccc4)cc3s2)=N1 [L'in-BE]
light readings from the reaction samples ([1]; substrate 6.25 (L'in-BE: 6.26), + Co A & DTT, Time 0 min): 436.9 | light readings from the reaction samples ([1]; substrate 6.25 (L'in-BE: 6.26), + Co A & DTT, Time 20 min): 80.41 | light readings from the reaction samples ([1]; substrate 6.25 (L'in-BE: 6.26), + Co A & DTT, Time 40 min): 38.47 | light readings from the reaction samples ([1]; substrate 6.25 (L'in-BE: 6.26), + Co A & DTT, Time 60 min): 22.83 | light readings from the reaction samples ([1]; substrate 6.25 (L'in-BE: 6.26), + Co A & DTT, Time 90 min): 16.08 | light readings from the reaction samples ([1]; substrate 6.25 (L'in-BE: 6.26), + Co A & DTT, Time 120 min): 12.01 | light readings from the reaction samples ([1]; substrate 6.25 (L'in-BE: 6.26), + Co A, Time 0 min): 2575 | light readings from the reaction samples ([1]; substrate 6.25 (L'in-BE: 6.26), + Co A, Time 20 min): 207.1 | light readings from the reaction samples ([1]; substrate 6.25 (L'in-BE: 6.26), + Co A, Time 40 min): 83.73 | light readings from the reaction samples ([1]; substrate 6.25 (L'in-BE: 6.26), + Co A, Time 60 min): 45.54 | light readings from the reaction samples ([1]; substrate 6.25 (L'in-BE: 6.26), + Co A, Time 90 min): 24 | light readings from the reaction samples ([1]; substrate 6.25 (L'in-BE: 6.26), + Co A, Time 120 min): 14.42 | light readings from the reaction samples ([1]; substrate 6.25 (L'in-BE: 6.26), + DTT, Time 0 min): 455.6 | light readings from the reaction samples ([1]; substrate 6.25 (L'in-BE: 6.26), + DTT, Time 20 min): 71.9 | light readings from the reaction samples ([1]; substrate 6.25 (L'in-BE: 6.26), + DTT, Time 40 min): 33.73 | light readings from the reaction samples ([1]; substrate 6.25 (L'in-BE: 6.26), + DTT, Time 60 min): 21.49 | light readings from the reaction samples ([1]; substrate 6.25 (L'in-BE: 6.26), + DTT, Time 90 min): 13.67 | light readings from the reaction samples ([1]; substrate 6.25 (L'in-BE: 6.26), + DTT, Time 120 min): 9.847 | light readings from the reaction samples ([1]; substrate 6.25 (L'in-BE: 6.26), Alone, Time 0 min): 785.5 | light readings from the reaction samples ([1]; substrate 6.25 (L'in-BE: 6.26), Alone, Time 20 min): 62.64 | light readings from the reaction samples ([1]; substrate 6.25 (L'in-BE: 6.26), Alone, Time 40 min): 22.11 | light readings from the reaction samples ([1]; substrate 6.25 (L'in-BE: 6.26), Alone, Time 60 min): 11.22 | light readings from the reaction samples ([1]; substrate 6.25 (L'in-BE: 6.26), Alone, Time 90 min): 5.189 | light readings from the reaction samples ([1]; substrate 6.25 (L'in-BE: 6.26), Alone, Time 120 min): 2.995 | light readings from the reaction samples ([1]; substrate 25, + Co A & DTT, Time 0 min): 402 | light readings from the reaction samples ([1]; substrate 25, + Co A & DTT, Time 20 min): 85.37 | light readings from the reaction samples ([1]; substrate 25, + Co A & DTT, Time 40 min): 45.87 | light readings from the reaction samples ([1]; substrate 25, + Co A & DTT, Time 60 min): 27.94 | light readings from the reaction samples ([1]; substrate 25, + Co A & DTT, Time 90 min): 18.94 | light readings from the reaction samples ([1]; substrate 25, + Co A & DTT, Time 120 min): 13.13 | light readings from the reaction samples ([1]; substrate 25, + Co A, Time 0 min): 972.4 | light readings from the reaction samples ([1]; substrate 25, + Co A, Time 20 min): 127.4 | light readings from the reaction samples ([1]; substrate 25, + Co A, Time 40 min): 58.9 | light readings from the reaction samples ([1]; substrate 25, + Co A, Time 60 min): 31.96 | light readings from the reaction samples ([1]; substrate 25, + Co A, Time 90 min): 17.54 | light readings from the reaction samples ([1]; substrate 25, + Co A, Time 120 min): 9.727 | light readings from the reaction samples ([1]; substrate 25, + DTT, Time 0 min): 448.6 | light readings from the reaction samples ([1]; substrate 25, + DTT, Time 20 min): 84.21 | light readings from the reaction samples ([1]; substrate 25, + DTT, Time 40 min): 43.77 | light readings from the reaction samples ([1]; substrate 25, + DTT, Time 60 min): 27.21 | light readings from the reaction samples ([1]; substrate 25, + DTT, Time 90 min): 18.48 | light readings from the reaction samples ([1]; substrate 25, + DTT, Time 120 min): 12.93 | light readings from the reaction samples ([1]; substrate 25, Alone, Time 0 min): 623.2 | light readings from the reaction samples ([1]; substrate 25, Alone, Time 20 min): 73.96 | light readings from the reaction samples ([1]; substrate 25, Alone, Time 40 min): 28.76 | light readings from the reaction samples ([1]; substrate 25, Alone, Time 60 min): 13.42 | light readings from the reaction samples ([1]; substrate 25, Alone, Time 90 min): 5.528 | light readings from the reaction samples ([1]; substrate 25, Alone, Time 120 min): 2.549 | light readings from the reaction samples ([1]; substrate 100, + Co A & DTT, Time 0 min): 140.4 | light readings from the reaction samples ([1]; substrate 100, + Co A & DTT, Time 20 min): 71.5 | light readings from the reaction samples ([1]; substrate 100, + Co A & DTT, Time 40 min): 45.66 | light readings from the reaction samples ([1]; substrate 100, + Co A & DTT, Time 60 min): 29.32 | light readings from the reaction samples ([1]; substrate 100, + Co A & DTT, Time 90 min): 19.92 | light readings from the reaction samples ([1]; substrate 100, + Co A & DTT, Time 120 min): 13.08 | light readings from the reaction samples ([1]; substrate 100, + Co A, Time 0 min): 191.9 | light readings from the reaction samples ([1]; substrate 100, + Co A, Time 20 min): 63.85 | light readings from the reaction samples ([1]; substrate 100, + Co A, Time 40 min): 29.28 | light readings from the reaction samples ([1]; substrate 100, + Co A, Time 60 min): 14.78 | light readings from the reaction samples ([1]; substrate 100, + Co A, Time 90 min): 6.652 | light readings from the reaction samples ([1]; substrate 100, + Co A, Time 120 min): 3.014 | light readings from the reaction samples ([1]; substrate 100, + DTT, Time 0 min): 148.7 | light readings from the reaction samples ([1]; substrate 100, + DTT, Time 20 min): 77.9 | light readings from the reaction samples ([1]; substrate 100, + DTT, Time 40 min): 48.39 | light readings from the reaction samples ([1]; substrate 100, + DTT, Time 60 min): 32.26 | light readings from the reaction samples ([1]; substrate 100, + DTT, Time 90 min): 21.71 | light readings from the reaction samples ([1]; substrate 100, + DTT, Time 120 min): 14.25 | light readings from the reaction samples ([1]; substrate 100, Alone, Time 0 min): 160 | light readings from the reaction samples ([1]; substrate 100, Alone, Time 20 min): 48.21 | light readings from the reaction samples ([1]; substrate 100, Alone, Time 40 min): 19.25 | light readings from the reaction samples ([1]; substrate 100, Alone, Time 60 min): 8.305 | light readings from the reaction samples ([1]; substrate 100, Alone, Time 90 min): 2.843 | light readings from the reaction samples ([1]; substrate 100, Alone, Time 120 min): 1.311 | light values obtained upon addition of the diluted reaction samples into Steady Glo reagent ([2]; Substrate 6.25, + Co A & DTT, Time Sample Taken 0 min): 1943 | light values obtained upon addition of the diluted reaction samples into Steady Glo reagent ([2]; Substrate 6.25, + Co A & DTT, Time Sample Taken 60 min): 1235 | light values obtained upon addition of the diluted reaction samples into Steady Glo reagent ([2]; Substrate 6.25, + Co A & DTT, Time Sample Taken 120 min): 1163 | light values obtained upon addition of the diluted reaction samples into Steady Glo reagent ([2]; Substrate 6.25, + Co A, Time Sample Taken 0 min): 1841 | light values obtained upon addition of the diluted reaction samples into Steady Glo reagent ([2]; Substrate 6.25, + Co A, Time Sample Taken 60 min): 518.6 | light values obtained upon addition of the diluted reaction samples into Steady Glo reagent ([2]; Substrate 6.25, + Co A, Time Sample Taken 120 min): 349.1 | light values obtained upon addition of the diluted reaction samples into Steady Glo reagent ([2]; Substrate 6.25, + DTT, Time Sample Taken 0 min): 1860 | light values obtained upon addition of the diluted reaction samples into Steady Glo reagent ([2]; Substrate 6.25, + DTT, Time Sample Taken 60 min): 1173 | light values obtained upon addition of the diluted reaction samples into Steady Glo reagent ([2]; Substrate 6.25, + DTT, Time Sample Taken 120 min): 1067 | light values obtained upon addition of the diluted reaction samples into Steady Glo reagent ([2]; Substrate 6.25, Alone, Time Sample Taken 0 min): 2057 | light values obtained upon addition of the diluted reaction samples into Steady Glo reagent ([2]; Substrate 6.25, Alone, Time Sample Taken 60 min): 406.6 | light values obtained upon addition of the diluted reaction samples into Steady Glo reagent ([2]; Substrate 6.25, Alone, Time Sample Taken 120 min): 267.7 | light values obtained upon addition of the diluted reaction samples into Steady Glo reagent ([2]; Substrate 25, + Co A & DTT, Time Sample Taken 0 min): 1925 | light values obtained upon addition of the diluted reaction samples into Steady Glo reagent ([2]; Substrate 25, + Co A & DTT, Time Sample Taken 60 min): 1102 | light values obtained upon addition of the diluted reaction samples into Steady Glo reagent ([2]; Substrate 25, + Co A & DTT, Time Sample Taken 120 min): 836.3 | light values obtained upon addition of the diluted reaction samples into Steady Glo reagent ([2]; Substrate 25, + Co A, Time Sample Taken 0 min): 1610 | light values obtained upon addition of the diluted reaction samples into Steady Glo reagent ([2]; Substrate 25, + Co A, Time Sample Taken 60 min): 277.8 | light values obtained upon addition of the diluted reaction samples into Steady Glo reagent ([2]; Substrate 25, + Co A, Time Sample Taken 120 min): 143.2 | light values obtained upon addition of the diluted reaction samples into Steady Glo reagent ([2]; Substrate 25, + DTT, Time Sample Taken 0 min): 1675 | light values obtained upon addition of the diluted reaction samples into Steady Glo reagent ([2]; Substrate 25, + DTT, Time Sample Taken 60 min): 910.2 | light values obtained upon addition of the diluted reaction samples into Steady Glo reagent ([2]; Substrate 25, + DTT, Time Sample Taken 120 min): 738.9 | light values obtained upon addition of the diluted reaction samples into Steady Glo reagent ([2]; Substrate 25, Alone, Time Sample Taken 0 min): 1309 | light values obtained upon addition of the diluted reaction samples into Steady Glo reagent ([2]; Substrate 25, Alone, Time Sample Taken 60 min): 157.1 | light values obtained upon addition of the diluted reaction samples into Steady Glo reagent ([2]; Substrate 25, Alone, Time Sample Taken 120 min): 72.57 | light values obtained upon addition of the diluted reaction samples into Steady Glo reagent ([2]; Substrate 100, + Co A & DTT, Time Sample Taken 0 min): 1780 | light values obtained upon addition of the diluted reaction samples into Steady Glo reagent ([2]; Substrate 100, + Co A & DTT, Time Sample Taken 60 min): 1016 | light values obtained upon addition of the diluted reaction samples into Steady Glo reagent ([2]; Substrate 100, + Co A & DTT, Time Sample Taken 120 min): 778.7 | light values obtained upon addition of the diluted reaction samples into Steady Glo reagent ([2]; Substrate 100, + Co A, Time Sample Taken 0 min): 1486 | light values obtained upon addition of the diluted reaction samples into Steady Glo reagent ([2]; Substrate 100, + Co A, Time Sample Taken 60 min): 242.2 | light values obtained upon addition of the diluted reaction samples into Steady Glo reagent ([2]; Substrate 100, + Co A, Time Sample Taken 120 min): 82.03 | light values obtained upon addition of the diluted reaction samples into Steady Glo reagent ([2]; Substrate 100, + DTT, Time Sample Taken 0 min): 1762 | light values obtained upon addition of the diluted reaction samples into Steady Glo reagent ([2]; Substrate 100, + DTT, Time Sample Taken 60 min): 952.1 | light values obtained upon addition of the diluted reaction samples into Steady Glo reagent ([2]; Substrate 100, + DTT, Time Sample Taken 120 min): 691 | light values obtained upon addition of the diluted reaction samples into Steady Glo reagent ([2]; Substrate 100, Alone, Time Sample Taken 0 min): 1245 | light values obtained upon addition of the diluted reaction samples into Steady Glo reagent ([2]; Substrate 100, Alone, Time Sample Taken 60 min): 156.4 | light values obtained upon addition of the diluted reaction samples into Steady Glo reagent ([2]; Substrate 100, Alone, Time Sample Taken 120 min): 61.75
